# Results as given in patent US20130164384A1, “METHODS OF TREATING BOWEL DISEASES BY ADMINISTERING A BOWEL CLEANSER AND AN ANTIBIOTIC” (Salix Pharmaceuticals, Ltd., priority 2008, published 2013).
# Test system: subjects with dIBS
# Assay: Study of three rifaximin doses in subjects with dIBS: adequate relief of IBS symptoms and bloating
# Format: in vivo, human
# Conditions: for Adequate Relief of Bloating: Success / Adequate Relief of IBS Symptoms: Failure / Adequate Relief of IBS Symptoms: Success / Adequate Relief of Bloating: Failure: end of treatment phase
# Description: This example relates to a study of three rifaximin doses in subjects with dIBS. Subjects were randomized to receive daily BID doses of rifaximin 275 mg, 550 mg, or 1100 mg for 14 days. A fifth group of subjects received rifaximin 550 mg BID for a period of 28 days. Subjects were questioned on the relief of overall IBS symptoms and bloating. […] The analyses defined success as a “yes” response to questions regarding adequate relief of SGA or IBS-B in at least 2 out of the final 3 weeks of the double-blind treatment period.
# Baseline severity was determined using 7-point Lickert scales during screening for Abdominal Pain/Discomfort and Bloating, and the number, type (normal, hard, loose) and urgency of bowel movements.
# Duration of effect was assessed in a 12 week follow-up period. Subjects that responded in the 4 week double-blind treatment period were followed for an additional 3 months. Fifty-three (53) subjects from the 550 mg 2 w and 59 subjects from the placebo-treated groups participated in this study phase.
# Subjects recorded the following information on dIBS symptoms daily throughout the duration of the study: • Number of normal stools/day; • Number of hard and lumpy stools/day; • Number of loose or watery stools/day; • Number of loose or watery stools/day with the symptom of urgency; • How bothersome is abdominal pain and discomfort? [7-point response scale: 0 (not at all) to 6 (a very great deal)]; • How bothersome is bloating? [(7-point response scale: 0 (not at all) to 6 (a very great deal)].
# Weekly summary variables were computed by averaging the recorded values over all pre-treatment days or over the seven days preceding the time point of interest for post-treatment assessments. For example, baseline included Days −10 to 0, Week 1 included Days 1 to 7, Week 2 included Days 8 to 14, and so forth through Week 16. Changes from baseline variables were computed for each weekly summary score.
# [1] = RFX 550 2 w (550 mg BID 14 days), had screening colonoscopy, Average Bloating Discomfort Score at Baseline >4
# [2] = RFX 550 4 w (550 mg BID 28 days), Had a Screening Colonoscopy: No
# [3] = RFX 550 4 w (550 mg BID 28 days), Had a Screening Colonoscopy: Yes
# [4] = RFX 550 4 w (550 mg BID 28 days), Screening Colonoscopy <=26 Days
# [5] = RFX 550 4 w (550 mg BID 28 days), Screening Colonoscopy >26 Days
# [6] = RFX 550 4 w (550 mg BID 28 days), had screening colonoscopy, Average Abdominal Pain Discomfort Score at Baseline <=4
# [7] = RFX 550 4 w (550 mg BID 28 days), had screening colonoscopy, Average Abdominal Pain Discomfort Score at Baseline >4
# [8] = RFX 550 4 w (550 mg BID 28 days), had screening colonoscopy, Average Bloating Discomfort Score at Baseline <=4
# [9] = RFX 550 4 w (550 mg BID 28 days), had screening colonoscopy, Average Bloating Discomfort Score at Baseline >4
# [10] = RFX 1100 2 w (1100 mg BID 14 days), Had a Screening Colonoscopy: No
# [11] = RFX 1100 2 w (1100 mg BID 14 days), Had a Screening Colonoscopy: Yes
# [12] = RFX 1100 2 w (1100 mg BID 14 days), Screening Colonoscopy <=26 Days
# [13] = RFX 1100 2 w (1100 mg BID 14 days), Screening Colonoscopy >26 Days
# [14] = RFX 1100 2 w (1100 mg BID 14 days), had screening colonoscopy, Average Abdominal Pain Discomfort Score at Baseline <=4
# [15] = RFX 1100 2 w (1100 mg BID 14 days), had screening colonoscopy, Average Abdominal Pain Discomfort Score at Baseline >4
# [16] = RFX 1100 2 w (1100 mg BID 14 days), had screening colonoscopy, Average Bloating Discomfort Score at Baseline <=4
# [17] = RFX 1100 2 w (1100 mg BID 14 days), had screening colonoscopy, Average Bloating Discomfort Score at Baseline >4
structure (smiles),measurement,setting,value
"COC1/C=C/OC2(C)Oc3c(C)c(O)c4c(O)c(c5c(nc6cc(C)ccn65)c4c3C2=O)NC(=O)/C(C)=C\C=C\C(C)C(O)C(C)C(O)C(C)C(OC(C)=O)C1C [RFX, (2S,16Z,18E,20S,21S,22R,23R,24R,25S,26S,27S,28E)-5,6,21,23,25 Pentahydroxy-27-methoxy-2,4,11,16,20,22,24,26-octamethyl-2,7-(epoxypentadeca-(1,11,13)trienimino)benzofuro(4,5-e)pyrido(1,2,-a)benzimidazole-1,15(2H)-dione,25-acetate]",Adequate Relief of Bloating: Success,[1],8 (50.0%) n (%)
same,Adequate Relief of IBS Symptoms: Failure,[1],8 (50.0%) n (%)
same,Adequate Relief of IBS Symptoms: Success,[1],8 (50.0%) n (%)
same,Adequate Relief of Bloating: Failure,[2],37 (64.9%) n (%)
same,Adequate Relief of Bloating: Success,[2],20 (35.1%) n (%)
same,Adequate Relief of IBS Symptoms: Failure,[2],35 (61.4%) n (%)
same,Adequate Relief of IBS Symptoms: Success,[2],22 (38.6%) n (%)
same,Adequate Relief of Bloating: Failure,[3],23 (56.1%) n (%)
same,Adequate Relief of Bloating: Success,[3],18 (43.9%) n (%)
same,Adequate Relief of IBS Symptoms: Failure,[3],22 (53.7%) n (%)
same,Adequate Relief of IBS Symptoms: Success,[3],19 (46.3%) n (%)
same,Adequate Relief of Bloating: Failure,[4],12 (48.0%) n (%)
same,Adequate Relief of Bloating: Success,[4],13 (52.0%) n (%)
same,Adequate Relief of IBS Symptoms: Failure,[4],11 (44.0%) n (%)
same,Adequate Relief of IBS Symptoms: Success,[4],14 (56.0%) n (%)
same,Adequate Relief of Bloating: Failure,[5],11 (68.8%) n (%)
same,Adequate Relief of Bloating: Success,[5],5 (31.3%) n (%)
same,Adequate Relief of IBS Symptoms: Failure,[5],11 (68.8%) n (%)
same,Adequate Relief of IBS Symptoms: Success,[5],5 (31.3%) n (%)
same,Adequate Relief of Bloating: Failure,[6],19 (59.4%) n (%)
same,Adequate Relief of Bloating: Success,[6],13 (40.6%) n (%)
same,Adequate Relief of IBS Symptoms: Failure,[6],19 (59.4%) n (%)
same,Adequate Relief of IBS Symptoms: Success,[6],13 (40.6%) n (%)
same,Adequate Relief of Bloating: Failure,[7],4 (44.4%) n (%)
same,Adequate Relief of Bloating: Success,[7],5 (55.6%) n (%)
same,Adequate Relief of IBS Symptoms: Failure,[7],3 (33.3%) n (%)
same,Adequate Relief of IBS Symptoms: Success,[7],6 (66.7%) n (%)
same,Adequate Relief of Bloating: Failure,[8],15 (57.7%) n (%)
same,Adequate Relief of Bloating: Success,[8],11 (42.3%) n (%)
same,Adequate Relief of IBS Symptoms: Failure,[8],15 (57.7%) n (%)
same,Adequate Relief of IBS Symptoms: Success,[8],11 (42.3%) n (%)
same,Adequate Relief of Bloating: Failure,[9],8 (53.3%) n (%)
same,Adequate Relief of Bloating: Success,[9],7 (46.7%) n (%)
same,Adequate Relief of IBS Symptoms: Failure,[9],7 (46.7%) n (%)
same,Adequate Relief of IBS Symptoms: Success,[9],8 (53.3%) n (%)
same,Adequate Relief of Bloating: Failure,[10],30 (66.7%) n (%)
same,Adequate Relief of Bloating: Success,[10],15 (33.3%) n (%)
same,Adequate Relief of IBS Symptoms: Failure,[10],27 (60.0%) n (%)
same,Adequate Relief of IBS Symptoms: Success,[10],18 (40.0%) n (%)
same,Adequate Relief of Bloating: Failure,[11],31 (57.4%) n (%)
same,Adequate Relief of Bloating: Success,[11],23 (42.6%) n (%)
same,Adequate Relief of IBS Symptoms: Failure,[11],31 (57.4%) n (%)
same,Adequate Relief of IBS Symptoms: Success,[11],23 (42.6%) n (%)
same,Adequate Relief of Bloating: Failure,[12],20 (55.6%) n (%)
same,Adequate Relief of Bloating: Success,[12],16 (44.4%) n (%)
same,Adequate Relief of IBS Symptoms: Failure,[12],19 (52.8%) n (%)
same,Adequate Relief of IBS Symptoms: Success,[12],17 (47.2%) n (%)
same,Adequate Relief of Bloating: Failure,[13],11 (61.1%) n (%)
same,Adequate Relief of Bloating: Success,[13],7 (38.9%) n (%)
same,Adequate Relief of IBS Symptoms: Failure,[13],12 (66.7%) n (%)
same,Adequate Relief of IBS Symptoms: Success,[13],6 (33.3%) n (%)
same,Adequate Relief of Bloating: Failure,[14],22 (50.0%) n (%)
same,Adequate Relief of Bloating: Success,[14],22 (50.0%) n (%)
same,Adequate Relief of IBS Symptoms: Failure,[14],23 (52.3%) n (%)
same,Adequate Relief of IBS Symptoms: Success,[14],21 (47.7%) n (%)
same,Adequate Relief of Bloating: Failure,[15],9 (90.0%) n (%)
same,Adequate Relief of Bloating: Success,[15],1 (10.0%) n (%)
same,Adequate Relief of IBS Symptoms: Failure,[15],8 (80.0%) n (%)
same,Adequate Relief of IBS Symptoms: Success,[15],2 (20.0%) n (%)
same,Adequate Relief of Bloating: Failure,[16],21 (47.7%) n (%)
same,Adequate Relief of Bloating: Success,[16],23 (52.3%) n (%)
same,Adequate Relief of IBS Symptoms: Failure,[16],21 (47.7%) n (%)
same,Adequate Relief of IBS Symptoms: Success,[16],23 (52.3%) n (%)
same,Adequate Relief of Bloating: Failure,[17],10 (100.0%) n (%)
same,Adequate Relief of Bloating: Success,[17],0 n (%)
same,Adequate Relief of IBS Symptoms: Failure,[17],10 (100.0%) n (%)
same,Adequate Relief of IBS Symptoms: Success,[17],0 n (%)
same,Likelihood of treatment effect with a purgative prior to rifaximin versus no cleanser,purgative prior to treatment,much more likely to have a treatment effect
same,Rate of success in relief of symptoms with screening colonoscopy (GI cleanser) prior to rifaximin,subjects who had a screening colonoscopy,higher rate of success in relief of symptoms
